Data reported in ChEMBL document CHEMBL1201862, “PubChem BioAssay data set” (2004).
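Results reflect a 48-hour exposure of cells in 96-well plates to compound at five concentrations. GI50 is the concentration that inhibits growth by half.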 Calls of active or inactive are those of the source. No stated cut-off is given here; in the data, active = GI50 up to about 1.1 µM and inactive = higher.

Assays:
Assay in all cases: growth of human tumour cells (NCI), 48 h
TK-10 = system: TK-10
LOX IMVI = system: LOX IMVI
SK-MEL-5 = system: SK-MEL-5
SNB-19 = system: SNB-19
A498 = system: A498
SK-MEL-2 = system: SK-MEL-2
OVCAR-5 = system: OVCAR-5
OVCAR-4 = system: OVCAR-4
MDA-MB-231 = system: MDA-MB-231
M14 = system: M14
SK-MEL-28 = system: SK-MEL-28
DU-145 = system: DU-145
NCI-H23 = system: NCI-H23
SF-295 = system: SF-295
HT-29 = system: HT-29
HCT-116 = system: HCT-116
K562 = system: K562
NCI-H226 = system: NCI-H226
SK-OV-3 = system: SK-OV-3

Compound	GI50 (TK-10)	GI50 (LOX IMVI)	GI50 (SK-MEL-5)	GI50 (SNB-19)	GI50 (A498)	GI50 (SK-MEL-2)	GI50 (OVCAR-5)	GI50 (OVCAR-4)	GI50 (MDA-MB-231)	GI50 (M14)	GI50 (SK-MEL-28)	GI50 (DU-145)	GI50 (NCI-H23)	GI50 (SF-295)	GI50 (HT-29)	GI50 (HCT-116)	GI50 (K562)	GI50 (NCI-H226)	GI50 (SK-OV-3)
C1#Cc2ccccc2OCCOc2ccccc2C#Cc2ccccc2OCCOc2ccccc21	28.8 µM (inactive)	16 µM (inactive)	18.2 µM (inactive)	25.9 µM (inactive)	17.3 µM (inactive)	71 µM (inactive)	24 µM (inactive)	10.9 µM (inactive)	17.7 µM (inactive)	30.8 µM (inactive)	70.8 µM (inactive)	> 100 µM (inactive)	16.9 µM (inactive)	21.6 µM (inactive)	66.5 µM (inactive)	32.7 µM (inactive)	11.7 µM (inactive)	19.1 µM (inactive)	–
O=c1cnn(CCOCP(=O)(O)O)c(=O)[nH]1	> 100 µM (inactive)	> 100 µM (inactive)	> 100 µM (inactive)	> 100 µM (inactive)	> 100 µM (inactive)	> 100 µM (inactive)	> 100 µM (inactive)	–	> 100 µM (inactive)	> 100 µM (inactive)	> 100 µM (inactive)	> 100 µM (inactive)	> 100 µM (inactive)	–	> 100 µM (inactive)	–	> 100 µM (inactive)	> 100 µM (inactive)	–
C=CCN1CN(c2ccccc2)C2(CCN(CCCC3(c4ccc(F)cc4)OCCO3)CC2)C1=O	16.9 µM (inactive)	18.5 µM (inactive)	15.1 µM (inactive)	19.5 µM (inactive)	–	–	11.3 µM (inactive)	–	18.3 µM (inactive)	15.5 µM (inactive)	16.9 µM (inactive)	22.4 µM (inactive)	13.5 µM (inactive)	18.5 µM (inactive)	5.61 µM (inactive)	14.8 µM (inactive)	12.8 µM (inactive)	19.5 µM (inactive)	19.6 µM (inactive)
CC(C)(C)NC(=S)N/N=C/c1ccccn1	14.1 µM (inactive)	–	0.409 µM (active)	7.36 µM (inactive)	2.73 µM (inactive)	0.724 µM (active)	0.361 µM (active)	–	0.223 µM (active)	0.0851 µM (active)	3.4 µM (inactive)	2.04 µM (inactive)	–	2.84 µM (inactive)	< 0.0452 µM (active)	< 0.01 µM (active)	< 0.01 µM (active)	1 µM (active)	1.96 µM (inactive)
c1ccc2c(c1)[n-]n1c3ccc4nonc4c3n[n+]21	–	> 100 µM (inactive)	> 100 µM (inactive)	> 100 µM (inactive)	> 100 µM (inactive)	> 100 µM (inactive)	> 100 µM (inactive)	> 100 µM (inactive)	> 100 µM (inactive)	> 100 µM (inactive)	> 100 µM (inactive)	> 100 µM (inactive)	> 100 µM (inactive)	> 100 µM (inactive)	> 100 µM (inactive)	> 100 µM (inactive)	> 100 µM (inactive)	> 100 µM (inactive)	–
CCCO[C@@H]1[C@@H](OC(C)=O)[C@@H](OC(C)=O)C(C)(C)/C=C/[C@H](C)C(=O)[C@@]2(OC(C)=O)C[C@@](C)(OC(C)=O)[C@H](OC(C)=O)[C@@H]2[C@H]2OC(=O)CC[C@@]12OC(=O)c1ccccc1	> 25 µM (inactive)	> 25 µM (inactive)	19.1 µM (inactive)	> 25 µM (inactive)	–	> 25 µM (inactive)	> 25 µM (inactive)	> 25 µM (inactive)	> 25 µM (inactive)	> 25 µM (inactive)	–	> 25 µM (inactive)	> 25 µM (inactive)	10.4 µM (inactive)	5.18 µM (inactive)	6.97 µM (inactive)	4.63 µM (inactive)	> 25 µM (inactive)	> 25 µM (inactive)
C=Cc1cc2c(cc1O)CC[C@@H]1[C@@H]2CC[C@]2(C)[C@@H](O)CC[C@@H]12	12.2 µM (inactive)	8.63 µM (inactive)	4.39 µM (inactive)	4.23 µM (inactive)	24.4 µM (inactive)	5.78 µM (inactive)	21.3 µM (inactive)	11.2 µM (inactive)	5.33 µM (inactive)	5.4 µM (inactive)	4.06 µM (inactive)	–	3.18 µM (inactive)	3.82 µM (inactive)	15.3 µM (inactive)	–	3.03 µM (inactive)	12.4 µM (inactive)	5.79 µM (inactive)
CC1=NN(C(=O)c2ccc(Cl)cc2)C(=O)C1/N=N/c1ccc(S(=O)(=O)Nc2ncccn2)cc1 (stereo unspecified)	> 100 µM (inactive)	> 100 µM (inactive)	> 100 µM (inactive)	> 100 µM (inactive)	–	> 100 µM (inactive)	> 100 µM (inactive)	> 100 µM (inactive)	> 100 µM (inactive)	> 100 µM (inactive)	> 100 µM (inactive)	> 100 µM (inactive)	> 100 µM (inactive)	> 100 µM (inactive)	> 100 µM (inactive)	> 100 µM (inactive)	> 100 µM (inactive)	> 100 µM (inactive)	> 100 µM (inactive)
CN(C)c1ccc(/C=N/c2ccc(Oc3ccc(Cl)cc3)c(Cl)c2)cc1	32.4 µM (inactive)	17.9 µM (inactive)	15 µM (inactive)	16.4 µM (inactive)	–	14.5 µM (inactive)	28.3 µM (inactive)	22.1 µM (inactive)	16.5 µM (inactive)	28.1 µM (inactive)	19.3 µM (inactive)	27.5 µM (inactive)	19 µM (inactive)	24.7 µM (inactive)	16.1 µM (inactive)	5.2 µM (inactive)	–	21.6 µM (inactive)	26.8 µM (inactive)
NC(=S)N/N=C1\C(=O)Nc2c(Cl)cc(Cl)cc21	73.1 µM (inactive)	18.3 µM (inactive)	14.4 µM (inactive)	31.3 µM (inactive)	32.4 µM (inactive)	15.5 µM (inactive)	81.7 µM (inactive)	34 µM (inactive)	22.9 µM (inactive)	17.2 µM (inactive)	15 µM (inactive)	–	37.6 µM (inactive)	19.2 µM (inactive)	18.8 µM (inactive)	17.9 µM (inactive)	29.6 µM (inactive)	15.7 µM (inactive)	41.9 µM (inactive)
COc1ccc2[nH]c(Cl)c(/C=C3/C(=O)Nc4cc(C)c(OC)cc43)c2c1	9.18 µM (inactive)	5.3 µM (inactive)	2.25 µM (inactive)	8.26 µM (inactive)	5.82 µM (inactive)	2.4 µM (inactive)	6.93 µM (inactive)	–	3.81 µM (inactive)	3.98 µM (inactive)	9.38 µM (inactive)	14.3 µM (inactive)	5.11 µM (inactive)	1.98 µM (inactive)	4.23 µM (inactive)	4.59 µM (inactive)	4.39 µM (inactive)	–	2.52 µM (inactive)
